The target of assay [1] is T1, human recombinant P2X7 receptors (Homo sapiens, UniProt Q99572).
T1 construct: expressed in transfected cells
T1 sequence (Q99572 1-595): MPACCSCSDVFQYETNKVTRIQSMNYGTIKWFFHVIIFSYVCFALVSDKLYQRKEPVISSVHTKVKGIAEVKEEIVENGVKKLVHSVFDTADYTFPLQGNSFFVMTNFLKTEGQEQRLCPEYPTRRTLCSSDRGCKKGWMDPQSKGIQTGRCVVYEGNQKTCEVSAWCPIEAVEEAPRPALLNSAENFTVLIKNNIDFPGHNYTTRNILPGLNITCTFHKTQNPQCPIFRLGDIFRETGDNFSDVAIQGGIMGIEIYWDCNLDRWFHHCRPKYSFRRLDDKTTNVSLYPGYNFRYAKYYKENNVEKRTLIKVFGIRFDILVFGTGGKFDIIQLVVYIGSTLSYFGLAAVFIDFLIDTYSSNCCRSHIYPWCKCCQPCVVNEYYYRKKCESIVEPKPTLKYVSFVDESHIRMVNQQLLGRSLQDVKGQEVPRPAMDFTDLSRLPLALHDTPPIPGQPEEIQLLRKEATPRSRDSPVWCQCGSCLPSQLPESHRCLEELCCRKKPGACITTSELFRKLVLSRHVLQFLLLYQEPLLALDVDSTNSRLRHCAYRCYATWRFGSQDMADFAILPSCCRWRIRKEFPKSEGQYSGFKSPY
Kind of assay: Ethidium Accumulation Assay 2 (HEK293 cells, ATP-induced ethidium uptake). It counts as cell-based. To be noted: HEK293 cells expressing human P2X7; sometimes mean of more than one measurement; read-out: Assay 2 (antagonist pIC50 for blocking ATP responses) (converted). On the procedure:
Eithidium Accumulation Assay 2
Human Embryonic Kidney (HEK) 293 cells, stably expressing human recombinant P2X7 receptors, were grown in poly-D-lysine pretreated 96 well plates for 24 hours at 37° C.
The cells were washed with assay buffer (100 μL), before addition of 25 μL of assay buffer and then 25 ul of assay buffer containing the putative P2X7 receptor antagonist compound. The cells were then incubated at room temperature (19-21° C.) for 30 min before addition of ATP solution (50 μM). […] Antagonist pIC50 values for blocking ATP responses were determined using iterative curve fitting techniques.

For assay [2], the target named is T1, human recombinant P2X7 receptors. Briefly: Ethidium Accumulation Assay 1 (HEK293 cells, ATP-induced ethidium uptake). As to conditions: HEK293 cells expressing human P2X7; 1 mM ATP; sometimes mean of more than one measurement; read-out: Assay 1 (antagonist pIC50 for blocking ATP responses) (converted). It counts as cell-based.

Consider `Cc1ccc(-c2nnc3n2CCN(C(=O)c2cccc(C(F)(F)F)c2Cl)C3)o1` [Example 159, 7-{[2-chloro-3-(trifluoromethyl)phenyl]carbonyl}-3-(5-methyl-2-furanyl)-5,6,7,8-tetrahydro[1,2,4]triazolo[4,3-a]pyrazine], for which, in assay [1], the IC50 was under 10 nM. Same read-out and setting: the result for `Cc1c(Cl)cccc1C(=O)N1CCn2c(nnc2-c2ncns2)C1` [Example 195, 7-[(3-Chloro-2-methylphenyl)carbonyl]-3-(1,2,4-thiadiazol-5-yl)-5,6,7,8-tetrahydro[1,2,4]triazolo[4,3-a]pyrazine] reads under 10 nM. In the case of `Cc1c(C(=O)N2CCn3c(nnc3-c3ncns3)C2)ccc(F)c1F` [Example 202, 7-[(3,4-Difluoro-2-methylphenyl)carbonyl]-3-(1,2,4-thiadiazol-5-yl)-5,6,7,8-tetrahydro[1,2,4]triazolo[4,3-a]pyrazine], the IC50 in assay [2] was under 100 nM. In the case of `O=C(c1ccc(F)cc1Cl)N1CCn2c(nnc2-c2cccc3cc[nH]c23)C1` [Example 132, 7-[(2-chloro-4-fluorophenyl)carbonyl]-3-(1H-indol-7-yl)-5,6,7,8-tetrahydro[1,2,4]triazolo[4,3-a]pyrazine], in assay [2], the IC50 was under 100 nM. In the case of `O=C(c1ccc(F)cc1Cl)N1CCn2c(nnc2-c2cccc(F)c2F)C1` [Example 131, 7-[(2-chloro-4-fluorophenyl)carbonyl]-3-(2,3-difluorophenyl)-5,6,7,8-tetrahydro[1,2,4]triazolo[4,3-a]pyrazine], the IC50 in assay [2] was under 100 nM. Consider `O=C(c1cccc(C(F)(F)F)c1F)N1CCn2c(nnc2-c2ccccn2)C1` [Example 91, 7-{[2-fluoro-3-(trifluoromethyl)phenyl]carbonyl}-3-(2-pyridinyl)-5,6,7,8-tetrahydro[1,2,4]triazolo [4,3-a]pyrazine], for which the IC50 in assay [2] is under 10 nM. For the molecule `Cc1ncccc1-c1nnc2n1CCN(C(=O)c1cccc(C(F)(F)F)c1Cl)C2` [Example 65, 7-{[2-chloro-3-(trifluoromethyl)phenyl]carbonyl}-3-(2-methyl-3-pyridinyl)-5,6,7,8-tetrahydro[1,2,4]triazolo [4,3-a]pyrazine], the IC50 in assay [2] is under 100 nM.

`CNc1nnc2n1CCN(C(=O)c1cccc(C(F)(F)F)c1Cl)C2` [Example 21, 7-{[2-chloro-3-(trifluoromethyl)phenyl]carbonyl}-N-methyl-5,6,7,8-tetrahydro[1,2,4]triazolo [4,3-a]pyrazine-3-amine]: the IC50 in assay [2] was under 501 nM.

`O=C(c1ccc(F)cc1Cl)N1CCn2c(nnc2-c2ncccc2F)C1` [Example 31, 7-[(2-chloro-4-fluorophenyl)carbonyl]-3-(3-fluoro-2-pyridinyl)-5,6,7,8-tetrahydro[1,2,4]triazolo [4,3-a]pyrazine]: in assay [2], the IC50 was under 10 nM. The same measure, in the same setting: the result for `Cn1cccc1-c1nnc2n1CCN(C(=O)c1cccc(Cl)c1Cl)C2` [Example 48, 7-[(2,3-dichlorophenyl)carbonyl]-3-(1-methyl-1H-pyrrol-2-yl)-5,6,7,8-tetrahydro[1,2,4]triazolo [4,3-a]pyrazine] reads under 100 nM; that for `Cn1cccc1-c1nnc2n1CCN(C(=O)c1cccc(C(F)(F)F)c1Cl)C2` [Example 29, 7-{[2-chloro-3-(trifluoromethyl)phenyl]carbonyl}-3-(1-methyl-1H-pyrrol-2-yl)-5,6,7,8-tetrahydro[1,2,4]triazolo [4,3-a]pyrazine], under 10 nM.

Take `O=C(c1ccc(Cl)cc1Cl)N1CCn2c(nnc2-c2ccc(F)cc2)C1` [Example 100, 7-[(2,4-dichlorophenyl)carbonyl]-3-(4-fluorophenyl)-5,6,7,8-tetrahydro[1,2,4]triazolo [4,3-a]pyrazine]: the IC50 in assay [2] was under 100 nM. With `O=C(c1cccc(Cl)c1Cl)N1CCn2c(nnc2-c2cccc(F)n2)C1` [Example 55, 7-[(2,3-dichlorophenyl)carbonyl]-3-(6-fluoro-2-pyridinyl)-5,6,7,8-tetrahydro[1,2,4]triazolo [4,3-a]pyrazine], in assay [2], the IC50 was under 100 nM. For `Cc1nc(-c2nnc3n2CCN(C(=O)c2ccc(F)cc2Cl)C3)cs1` [Example 136, 7-[(2-chloro-4-fluorophenyl)carbonyl]-3-(2-methyl-1,3-thiazol-4-yl)-5,6,7,8-tetrahydro[1,2,4]triazolo[4,3-a]pyrazine], the IC50 in assay [2] is under 501 nM. As for `O=C(c1ccc(F)cc1Cl)N1CCn2c(nnc2-c2ccccc2)C1` [Example 30, 7-[(2-Chloro-4-fluorophenyl)carbonyl]-3-phenyl-5,6,7,8-tetrahydro[1,2,4]triazolo[4,3-a]pyrazine], the IC50 in assay [2] was under 100 nM.

For the molecule `Cn1ccc(-c2nnc3n2CCN(C(=O)c2cccc(Cl)c2Cl)C3)n1` [Example 63, 7-[(2,3-dichlorophenyl)carbonyl]-3-(1-methyl-1H-pyrazol-3-yl)-5,6,7,8-tetrahydro[1,2,4]triazolo [4,3-a]pyrazine], the IC50 in assay [2] was under 10 nM. Turning to `O=C(c1ccccc1Cl)N1CCn2c(nnc2-c2ccncn2)C1` [Example 116, 7-[(2-chlorophenyl)carbonyl]-3-(4-pyrimidinyl)-5,6,7,8-tetrahydro[1,2,4]triazolo[4,3-a]pyrazine], in assay [2], the IC50 is under 501 nM. The same measure, in the same setting: as for `O=C(c1ccc(F)cc1F)N1CCn2c(nnc2-c2ccccn2)C1` [Example 78, 7-[(2,4-difluorophenyl)carbonyl]-3-(2-pyridinyl)-5,6,7,8-tetrahydro[1,2,4]triazolo [4,3-a]pyrazine], the figure is under 100 nM; as for `O=C(c1ccccc1Cl)N1CCn2c(nnc2-c2cnccn2)C1` [Example 120, 7-[(2-chlorophenyl)carbonyl]-3-(2-pyrazinyl)-5,6,7,8-tetrahydro[1,2,4]triazolo[4,3-a]pyrazine], under 100 nM. Consider `O=C(c1ccc(Cl)cc1Cl)N1CCn2c(nnc2-c2cscn2)C1` [Example 97, 7-[(2,4-dichlorophenyl)carbonyl]-3-(1,3-thiazol-4-yl)-5,6,7,8-tetrahydro[1,2,4]triazolo [4,3-a]pyrazine], for which the IC50 in assay [2] is under 10 nM. As for `O=C(c1ccccc1C(F)(F)F)N1CCn2c(nnc2-c2ccccn2)C1` [Example 122, 3-(2-pyridinyl)-7-{[2-(trifluoromethyl)phenyl]carbonyl}-5,6,7,8-tetrahydro[1,2,4]triazolo[4,3-a]pyrazine], the IC50 in assay [2] was under 100 nM. `O=C(c1cccc(C(F)(F)F)c1Cl)N1CCn2c(nnc2C(F)(F)F)C1` [Example 2, 7-{[2-chloro-3-(trifluoromethyl)phenyl]carbonyl}-3-(trifluoromethyl)-5,6,7,8-tetrahydro[1,2,4]triazolo [4,3-a]pyrazine]: the IC50 in assay [2] is under 100 nM. On the same count and under the same terms, as for `Cc1ncccc1-c1nnc2n1CCN(C(=O)c1cccc(Cl)c1Cl)C2` [Example 73, 7-[(2,3-dichlorophenyl)carbonyl]-3-(2-methyl-3-pyridinyl)-5,6,7,8-tetrahydro[1,2,4]triazolo [4,3-a]pyrazine], the figure is under 100 nM; as for `Cc1cccc(-c2nnc3n2CCN(C(=O)c2cccc(C(F)(F)F)c2Cl)C3)n1` [Example 26, 7-{[2-chloro-3-(trifluoromethyl)phenyl]carbonyl}-3-(6-methyl-2-pyridinyl)-5,6,7,8-tetrahydro[1,2,4]triazolo [4,3-a]pyrazine], under 10 nM; as for `Cc1cccnc1-c1nnc2n1CCN(C(=O)c1cccc(C(F)(F)F)c1Cl)C2` [Example 28, 7-{[2-chloro-3-(trifluoromethyl)phenyl]carbonyl}-3-(3-methyl-2-pyridinyl)-5,6,7,8-tetrahydro[1,2,4]triazolo [4,3-a]pyrazine], under 10 nM.

For the molecule `Cn1ccnc1-c1nnc2n1CCN(C(=O)c1ccc(F)cc1Cl)C2` [Example 140, 7-[(2-chloro-4-fluorophenyl)carbonyl]-3-(1-methyl-1H-imidazol-2-yl)-5,6,7,8-tetrahydro[1,2,4]triazolo[4,3-a]pyrazine], the IC50 in assay [2] was under 501 nM. For the molecule `O=C(c1c(Cl)cccc1Cl)N1CCn2c(nnc2-c2ccccn2)C1` [Example 89, 7-[(2,6-dichlorophenyl)carbonyl]-3-(2-pyridinyl)-5,6,7,8-tetrahydro[1,2,4]triazolo [4,3-a]pyrazine], the IC50 in assay [2] was under 501 nM.

With `Cc1ccc(C(=O)N2CCn3c(nnc3-c3cnccn3)C2)c(C)c1` [Example 143, 7-[(2,4-dimethylphenyl)carbonyl]-3-(2-pyrazinyl)-5,6,7,8-tetrahydro[1,2,4]triazolo[4,3-a]pyrazine], the IC50 in assay [2] was under 501 nM. As for `Cc1cccnc1-c1nnc2n1CCN(C(=O)c1cccc(Cl)c1Cl)C2` [Example 66, 7-[(2,3-dichlorophenyl)carbonyl]-3-(3-methyl-2-pyridinyl)-5,6,7,8-tetrahydro[1,2,4]triazolo [4,3-a]pyrazine], the IC50 in assay [2] was under 100 nM.

For the origin of these results see US8501946B2 (Glaxo Group Limited, priority 2009, dated 2013).
